# Test results as given in the Kinase Knowledgebase extract (Sharma et al. 2016).
# Columns and labels:
# Test in all cases: Enzyme Assay
# PIK3CB (Human) = PIK3CB (Human) (UniProt P42338)
# PIK3CA (human) = PIK3CA (human) (UniProt P42336)
# PIK3CD (Human) = PIK3CD (Human) (UniProt O00329)
# PIK3CG (human) = PIK3CG (human) (UniProt P48736)
# Chain of PIK3CG (human) (P48736 whole entry, looked up): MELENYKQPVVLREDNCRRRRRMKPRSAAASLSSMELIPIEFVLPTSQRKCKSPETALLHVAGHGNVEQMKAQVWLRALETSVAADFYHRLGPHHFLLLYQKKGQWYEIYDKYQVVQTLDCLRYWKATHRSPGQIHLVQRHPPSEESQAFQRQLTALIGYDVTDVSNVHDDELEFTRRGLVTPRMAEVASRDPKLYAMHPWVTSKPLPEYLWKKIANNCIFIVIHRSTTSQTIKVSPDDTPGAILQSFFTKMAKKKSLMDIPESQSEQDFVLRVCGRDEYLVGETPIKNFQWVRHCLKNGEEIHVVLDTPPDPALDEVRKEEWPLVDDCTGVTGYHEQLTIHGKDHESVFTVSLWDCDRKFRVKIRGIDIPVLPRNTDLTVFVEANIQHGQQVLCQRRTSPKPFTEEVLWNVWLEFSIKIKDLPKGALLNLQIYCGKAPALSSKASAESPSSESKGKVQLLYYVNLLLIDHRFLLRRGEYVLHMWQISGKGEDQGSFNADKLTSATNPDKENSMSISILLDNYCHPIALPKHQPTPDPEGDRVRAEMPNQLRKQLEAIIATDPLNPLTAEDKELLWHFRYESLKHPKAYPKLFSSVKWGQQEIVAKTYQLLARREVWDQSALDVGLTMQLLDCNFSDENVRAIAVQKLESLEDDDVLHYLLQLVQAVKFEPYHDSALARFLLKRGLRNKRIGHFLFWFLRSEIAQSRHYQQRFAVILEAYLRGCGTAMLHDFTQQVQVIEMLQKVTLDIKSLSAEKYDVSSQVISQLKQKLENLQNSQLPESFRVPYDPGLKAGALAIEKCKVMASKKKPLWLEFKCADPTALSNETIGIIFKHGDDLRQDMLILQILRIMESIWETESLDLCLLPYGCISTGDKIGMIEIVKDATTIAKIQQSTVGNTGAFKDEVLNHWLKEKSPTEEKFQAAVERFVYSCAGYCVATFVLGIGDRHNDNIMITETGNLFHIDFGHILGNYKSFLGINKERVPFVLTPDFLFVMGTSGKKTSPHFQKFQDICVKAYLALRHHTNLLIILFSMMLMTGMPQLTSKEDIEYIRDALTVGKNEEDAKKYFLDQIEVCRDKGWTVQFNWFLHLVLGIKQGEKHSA
# Chain of PIK3CD (Human) (O00329 whole entry, looked up): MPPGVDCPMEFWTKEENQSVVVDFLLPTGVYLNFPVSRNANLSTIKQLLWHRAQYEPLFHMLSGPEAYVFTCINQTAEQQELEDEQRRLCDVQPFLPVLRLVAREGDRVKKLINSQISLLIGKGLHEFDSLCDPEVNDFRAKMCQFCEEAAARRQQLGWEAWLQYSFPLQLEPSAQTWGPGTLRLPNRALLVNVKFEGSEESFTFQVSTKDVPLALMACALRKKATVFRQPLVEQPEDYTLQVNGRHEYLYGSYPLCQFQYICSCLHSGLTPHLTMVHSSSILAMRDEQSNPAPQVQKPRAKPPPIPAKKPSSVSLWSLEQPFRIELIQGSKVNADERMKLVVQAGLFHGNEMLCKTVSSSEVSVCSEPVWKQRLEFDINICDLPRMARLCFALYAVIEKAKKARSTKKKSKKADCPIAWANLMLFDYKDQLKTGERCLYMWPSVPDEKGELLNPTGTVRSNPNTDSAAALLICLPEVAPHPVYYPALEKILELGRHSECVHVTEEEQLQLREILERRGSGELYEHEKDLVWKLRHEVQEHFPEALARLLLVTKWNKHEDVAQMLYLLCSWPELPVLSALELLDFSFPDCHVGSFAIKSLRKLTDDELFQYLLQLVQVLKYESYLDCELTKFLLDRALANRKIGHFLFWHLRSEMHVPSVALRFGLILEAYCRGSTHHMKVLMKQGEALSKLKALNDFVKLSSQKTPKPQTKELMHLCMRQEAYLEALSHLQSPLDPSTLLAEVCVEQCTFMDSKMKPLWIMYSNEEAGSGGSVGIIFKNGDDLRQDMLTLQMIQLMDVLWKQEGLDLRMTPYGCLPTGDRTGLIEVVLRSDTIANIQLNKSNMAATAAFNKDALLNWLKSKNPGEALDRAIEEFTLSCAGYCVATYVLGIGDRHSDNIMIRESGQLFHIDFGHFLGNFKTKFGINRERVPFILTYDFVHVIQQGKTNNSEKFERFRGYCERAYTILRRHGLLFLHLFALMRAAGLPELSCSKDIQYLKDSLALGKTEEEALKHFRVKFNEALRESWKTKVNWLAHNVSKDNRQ
# Chain of PIK3CB (Human) (P42338 whole entry, looked up): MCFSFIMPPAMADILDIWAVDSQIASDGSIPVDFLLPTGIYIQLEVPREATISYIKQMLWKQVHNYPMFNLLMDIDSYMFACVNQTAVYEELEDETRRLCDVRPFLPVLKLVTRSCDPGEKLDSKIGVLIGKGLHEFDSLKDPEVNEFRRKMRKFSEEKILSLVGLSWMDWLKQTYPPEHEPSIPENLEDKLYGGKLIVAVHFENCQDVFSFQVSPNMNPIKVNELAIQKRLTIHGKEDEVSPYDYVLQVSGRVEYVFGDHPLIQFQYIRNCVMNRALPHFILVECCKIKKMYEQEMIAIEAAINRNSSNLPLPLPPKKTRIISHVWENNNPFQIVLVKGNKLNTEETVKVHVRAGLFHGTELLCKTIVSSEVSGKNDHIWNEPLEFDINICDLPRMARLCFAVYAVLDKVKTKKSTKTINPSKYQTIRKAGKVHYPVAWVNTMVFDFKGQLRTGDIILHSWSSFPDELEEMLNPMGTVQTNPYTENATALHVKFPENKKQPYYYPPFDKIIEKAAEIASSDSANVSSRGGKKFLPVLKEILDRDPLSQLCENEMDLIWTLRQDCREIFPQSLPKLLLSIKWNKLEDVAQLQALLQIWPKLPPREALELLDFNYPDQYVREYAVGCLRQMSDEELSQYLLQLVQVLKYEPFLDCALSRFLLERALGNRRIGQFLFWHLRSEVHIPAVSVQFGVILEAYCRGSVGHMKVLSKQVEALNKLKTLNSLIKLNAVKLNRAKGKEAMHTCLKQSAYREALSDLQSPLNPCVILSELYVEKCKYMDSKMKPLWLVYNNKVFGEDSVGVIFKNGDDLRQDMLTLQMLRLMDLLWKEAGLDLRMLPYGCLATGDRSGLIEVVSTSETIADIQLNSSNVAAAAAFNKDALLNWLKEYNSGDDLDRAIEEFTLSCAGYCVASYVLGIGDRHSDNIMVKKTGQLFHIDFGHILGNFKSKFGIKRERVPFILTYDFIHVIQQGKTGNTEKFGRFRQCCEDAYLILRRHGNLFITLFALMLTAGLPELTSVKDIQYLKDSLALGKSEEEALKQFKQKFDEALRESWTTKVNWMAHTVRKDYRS
# Chain of PIK3CA (human) (P42336 whole entry, looked up): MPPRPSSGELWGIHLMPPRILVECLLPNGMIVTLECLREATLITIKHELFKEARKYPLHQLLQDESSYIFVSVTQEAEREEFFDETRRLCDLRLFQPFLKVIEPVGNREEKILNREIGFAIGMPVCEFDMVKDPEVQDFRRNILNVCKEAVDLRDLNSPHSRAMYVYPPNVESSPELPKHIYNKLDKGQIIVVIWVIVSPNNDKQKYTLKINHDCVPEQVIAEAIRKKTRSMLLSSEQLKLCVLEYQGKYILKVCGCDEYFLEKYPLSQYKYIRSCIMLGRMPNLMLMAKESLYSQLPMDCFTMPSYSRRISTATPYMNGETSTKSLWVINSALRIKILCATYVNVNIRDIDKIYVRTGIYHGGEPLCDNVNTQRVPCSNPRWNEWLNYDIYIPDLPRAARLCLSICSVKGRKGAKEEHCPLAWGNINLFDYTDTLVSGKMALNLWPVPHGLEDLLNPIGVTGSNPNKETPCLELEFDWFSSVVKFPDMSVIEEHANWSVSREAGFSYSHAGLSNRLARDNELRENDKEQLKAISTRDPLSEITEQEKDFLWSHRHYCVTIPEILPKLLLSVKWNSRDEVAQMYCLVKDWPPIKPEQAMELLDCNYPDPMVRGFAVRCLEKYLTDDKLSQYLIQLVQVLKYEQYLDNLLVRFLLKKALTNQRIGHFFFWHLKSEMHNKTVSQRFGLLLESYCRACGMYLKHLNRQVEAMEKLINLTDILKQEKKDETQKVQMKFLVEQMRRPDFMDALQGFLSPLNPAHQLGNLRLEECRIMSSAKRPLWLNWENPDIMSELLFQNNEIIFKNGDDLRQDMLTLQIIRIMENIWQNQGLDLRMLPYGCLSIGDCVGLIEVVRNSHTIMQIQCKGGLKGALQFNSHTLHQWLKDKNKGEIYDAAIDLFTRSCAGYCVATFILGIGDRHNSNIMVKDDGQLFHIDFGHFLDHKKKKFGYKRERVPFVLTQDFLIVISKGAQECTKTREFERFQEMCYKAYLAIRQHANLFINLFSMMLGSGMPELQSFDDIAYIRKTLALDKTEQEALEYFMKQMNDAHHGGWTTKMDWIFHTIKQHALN
SMILES,IC50 (PIK3CB (Human)),IC50 (PIK3CA (human)),IC50 (PIK3CD (Human)),IC50 (PIK3CG (human))
COc1ccc(-c2ccc3c(N4CCOC[C@@H]4C)nc(N4CCOC[C@@H]4C)nc3n2)cc1CO,18900 nM,3590 nM,3200 nM,> 14800 nM
c1cncc(CN2CCC(n3ncc4c(N5CCOCC5)nc(-c5ccc6[nH]ccc6c5)nc43)CC2)c1,,,,8450 nM
CNC(=O)Nc1ccc(-c2nc(N3CC4CCC(C3)O4)c3cnn(C4CCC5(CC4)OCCO5)c3n2)cc1,> 10000 nM,,,> 10000 nM
COC(=O)Nc1ccc(-c2nc(N3CCOCC3)c3cnn(C4CCN(C(=O)OC)CC4)c3n2)cc1,,,,7370 nM

# These reach a lower IC50 (PIK3CG (human)). Values come first.
IC50 (PIK3CB (Human)),IC50 (PIK3CA (human)),IC50 (PIK3CD (Human)),IC50 (PIK3CG (human)),SMILES
,,,0.06 nM,COc1ncc(-c2ccc3nccc(-c4ccnnc4)c3c2)cc1NS(=O)(=O)c1ccc(F)cc1F
63 nM,,8 nM,672 nM,OCCN1CCN(Cc2cc3nc(-c4cccc(O)c4)nc(N4CCOCC4)c3s2)CC1
,,,3110 nM,COC(=O)Nc1ccc(-c2nc(N3CCOCC3)c3cnn(C4CCN(Cc5cccnc5)CC4)c3n2)cc1
736 nM,356 nM,3220 nM,1770 nM,CCC(NC(=O)C(CC(=O)O)NC(=O)CNC(=O)C(CCCN=C(N)N)NC(=O)CCC(=O)O[N+]1(c2cc(=O)c3cccc(-c4ccccc4)c3o2)CCOCC1)C(=O)[O-] (stereo not given)
35 nM,,4 nM,331 nM,CN1CCN(Cc2cc3nc(-c4cccc(O)c4)nc(N4CCOCC4)c3s2)CC1
